# Data reported in patent publication US8022215B2, “Fused pyridone M1 receptor positive allosteric modulators” (Merck Sharp & Dohme Corp., priority 2008, dated 2011).
# Biological target: T1, acetylcholine muscarinic M1 receptor (Homo sapiens, UniProt P11229)
# T1 construct: expressed in transfected cells; host or cells: CHOnfat (CHO cells, Geneticin selection)
# T1 sequence (P11229 1-460): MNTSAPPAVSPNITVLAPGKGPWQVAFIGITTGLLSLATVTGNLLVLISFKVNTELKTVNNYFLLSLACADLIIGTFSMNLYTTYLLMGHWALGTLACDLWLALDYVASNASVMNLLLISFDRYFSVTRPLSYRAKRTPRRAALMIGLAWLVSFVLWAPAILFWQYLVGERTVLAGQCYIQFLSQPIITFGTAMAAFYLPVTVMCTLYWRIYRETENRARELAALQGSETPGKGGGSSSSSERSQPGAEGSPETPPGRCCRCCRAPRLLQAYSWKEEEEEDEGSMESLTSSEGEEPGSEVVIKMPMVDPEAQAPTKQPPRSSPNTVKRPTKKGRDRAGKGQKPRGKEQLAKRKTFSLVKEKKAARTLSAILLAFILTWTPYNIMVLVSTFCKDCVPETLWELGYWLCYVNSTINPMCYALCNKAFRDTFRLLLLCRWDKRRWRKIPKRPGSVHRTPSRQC
# Assay: muscarinic FLIPR assay: potentiation of acetylcholine (EC20)-stimulated intracellular Ca2+ in CHOnfat/hM1 cells
# Format: cell-based
# Conditions: not given
# Protocol: The assay studies the effect of one or several concentrations of test compounds on basal or acetylcholine-stimulated Ca^2+ levels using FLIPR.
# Compounds are prepared and subjected to a preincubation period of 4 min. Thereafter, a single EC20 concentration of acetylcholine is added to each well (3 nM final). The intracellular Ca^2+ level of each sample is measured and compared to an acetylcholine control to determine any modulatory activity.
# Cells: CHOnfat/hM1, hM2, hM3 or hM4 cells are plated 24 hr before the assay at a density of 18,000 cells/well (100 μL) in a 384 well plate. CHOnfat/hM1 and CHOnfat/hM3 Growth Medium: 90% DMEM (Hi Glucose); 10% HI FBS; 2 mM L-glutamine; 0.1 mM NEAA; Pen-Strep; and 1 mg/ml Geneticin, are added. For M2Gqi5CHOnfat and M4Gqi5CHOnfat cells, an additional 600 μg/ml hygromycin is added.
# Buffers. […] Dye Loading Buffer: Assay Buffer plus 1% Fetal Bovine Serum and Fluo-4AM/Pluronic Acid Mixture. […] 20% Pluronic Acid Solution stock, with a concentration of 0.04% in Buffer, 0.02% in Assay.
# 65 μL of 2 mM Fluo-4AM are mixed with 130 μL of 20% Pluronic Acid. The resulting solution and 650 μL FBS is added to the assay buffer for a total volume of 65 mL. Positive Controls: 4-Br-A23187: 10 mM in DMSO; final concentration 10 μM. Acetylcholine: 10 mM in water, working stock at both 20 μM and 30 μM in assay buffer, final concentration of 10 μM. This is used to check the maximum stimulation of the CHOK1/hM1 cells. 20 μM (2×) acetylcholine is added in the preincubation part of the assay, and the 30 μM (3×) stock is added in the second part. (EC20)Acetylcholine: 10 mM in water, working stock of 9 nM (3×), and final concentration in assay is 3 nM. This is used after the preincubation with test compounds. Addition of the EC20 acetylcholine to each well with a test compound will ascertain any modulator activity. 24 wells contain 3 nM acetylcholine alone as a control.
# Determining Activity of Putative Compounds:
# Four 96-well plates are combined into a 384-well plate using Mosquito Nanolitre Pipetting System by transferring 1 μl of serial diluted compounds to each well, and 1 mM acetylcholine (100× stock concentration) were added as a control. Using Temo, 49 μl assay buffer is added to each well of the 384-well plate right before assay.
# In a 96-well Whatman 2 ml Uniplate, 9 nM acetylcholine (3×) is pipetted into wells corresponding to the screening compounds and into control wells. The 30 μM acetylcholine control (3×) is added into control wells and the 3× agonist plate is transferred into a 384-well plate.
# Cells are washed three times with 100 μL of buffer, leaving 30 μL of buffer in each well. Using Multimek, 30 μL of Dye Loading Buffer is added into each well and incubated at 37° C., 5% CO2 for up to one hr.
# After 60 min, the cells are washed three times with 100 μL of buffer, leaving 30 μL of buffer in each well. The cell plate, screening plate, and agonist addition plates are placed on the platform in the FLIPR and the door is closed. A signal test to check background fluorescence and basal fluorescence signal is performed. Laser intensity is adjusted if necessary.
# 4 min of preincubation with the test compounds is provided to determine any agonist activity on the M1 receptor by comparison to the 1 mM acetylcholine control. After preincubation, the EC20 value of acetylcholine (3 nM final) is added to determine any modulator activity.
# The inflection point is calculated from the FLIPR values and is a measure of activity.
row,SMILES,EC50 [nM]
1,"COc1ccccc1-c1ccc(Cn2cc(C(=O)O)c(=O)c3c2CCCC3O)cc1 (racemic) [Example 27, (±)-5-Hydroxy-1-[(2′-methoxybiphenyl-4-yl)methyl]-4-oxo-1,4,5,6,7,8-hexahydroquinoline-3carboxylic acid]",3140
2,COc1ccc(-c2ccc(Cn3cc(C(=O)O)c(=O)c4c3CCCC4O)cc2)cn1 (stereo not shown) [Example 53],323
3,N#Cc1ccc(-c2ccc(Cn3cc(C(=O)O)c(=O)c4c3CCCC4O)cc2)cc1 (stereo not shown) [Example 41],318
4,CNC1CCCc2c1c(=O)c(C(=O)O)cn2Cc1ccc(-c2ccccc2)cc1 (stereo not shown) [Example 70],8370
5,Cn1ccc2cc(-c3ccc(Cn4cc(C(=O)O)c(=O)c5c4CCCC5O)nc3)ccc21 (stereo not shown) [Example 66],199
6,"O=C(O)c1cn(C/C=C/c2ccccc2F)c2c(c1=O)C(=O)CCC2 [Example 15, 1-[(2E)-3-(2-Fluorophenyl)prop-2-en-1-yl]-4,5-dioxo-1,4,5,6,7,8-hexahydroquinoline-3-carboxylic acid]",64000

# Now from value to compound:
row,EC50 [nM],SMILES
1,812,"O=C(O)c1cn(Cc2ccc(-c3ccccc3)cc2)c2c(c1=O)CCC2 [Example 1, 1-(Biphenyl-4-ylmethyl)-4-oxo-4,5,6,7-tetrahydro-1H-cyclopenta[b]pyridine-3-carboxylic acid]"
2,2200,O=C(O)c1cn(Cc2ccc(-c3ccccc3)cc2)c2c(c1=O)C(NCc1ccccc1)CCC2 (stereo not shown) [Example 72]
3,4100,O=C(O)c1cn(Cc2ccc(-c3ccccc3)cc2)c2c(c1=O)C(N1CCCC1)CCC2 (stereo not shown) [Example 73]
4,9050,"CCC1(O)CCCc2c1c(=O)c(C(=O)O)cn2Cc1ccc(-c2ccccc2)cc1 (racemic) [Example 68, (±)-1-(Biphenyl-4-ylmethyl)-5-ethyl-5-hydroxy-4-oxo-1,4,5,6,7,8-hexahydroquinoline-3-carboxylic acid]"
5,1500,CCCCNC1CCCc2c1c(=O)c(C(=O)O)cn2Cc1ccc(-c2ccccc2)cc1 (stereo not shown) [Example 71]
6,1100,"COC1CCCc2c1c(=O)c(C(=O)O)cn2Cc1ccc(-c2ccccc2)cc1 (racemic) [Example 62, (±)-1-(Biphenyl-4-ylmethyl)-5-methoxy-4-oxo-1,4,5,6,7,8-hexahydroquinoline-3-carboxylic acid]"

# Same assay, conditions: CHOnfat/hM1 cells, FLIPR, 4 min preincubation, then EC20 acetylcholine (3 nM final); read-out: IP Value (inflection point)
row,EC50 [nM],SMILES
1,806,O=C(O)c1cn(Cc2ccc(-c3ccccc3)cc2)c2c(c1=O)C(=O)CCC2 [Example 6]
